Data: PubChem BioAssay AID248 (DTP/NCI, 2004)
Where “and” joins values, the source holds several entries; their conditions need not be identical. Equal entries are not always repeated. Inconclusive results and toxic doses are left out. Rule as the data show it: active = T/C of 150% or more; inactive = T/C below 125%.

Tested on: L1210 leukemia ip in BDF1 mice, survival T/C
Assay: NCI In Vivo Anticancer Drug Screen. Data for tumor model L1210 Leukemia (intraperitoneal) in B6D2F1 (BDF1) mice
Details: endpoint: mean survival time, higher = longer survival
How it was run: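 Survival endpoint. Drug-treated group vs vehicle group, expressed as T divided by C. Tumor passaged by transplantation.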

[1] = dose: 100.0 mg/kg/injection, schedule: Q01DX009 (ip), vehicle: Klucel (hydroxypropylcellulose) (HPC)
[2] = dose: 200.0 mg/kg/injection, schedule: Q01DX009 (ip), vehicle: Klucel (hydroxypropylcellulose) (HPC)
[3] = dose: 400.0 mg/kg/injection, schedule: Q01DX009 (ip), vehicle: Klucel (hydroxypropylcellulose) (HPC)
[4] = dose: 50.0 mg/kg/injection, schedule: Q01DX009 (ip), vehicle: saline
[5] = dose: 100.0 mg/kg/injection, schedule: Q01DX009 (ip), vehicle: saline
[6] = dose: 100.0 mg/kg/injection, schedule: Q04DX003 (ip), vehicle: Klucel (hydroxypropylcellulose) (HPC)
[7] = dose: 200.0 mg/kg/injection, schedule: Q04DX003 (ip), vehicle: Klucel (hydroxypropylcellulose) (HPC)
[8] = dose: 400.0 mg/kg/injection, schedule: Q04DX003 (ip), vehicle: Klucel (hydroxypropylcellulose) (HPC)
[9] = dose: 100.0 mg/kg/injection, schedule: Q04DX003 (ip), vehicle: saline
[10] = dose: 200.0 mg/kg/injection, schedule: Q04DX003 (ip), vehicle: saline
[11] = dose: 400.0 mg/kg/injection, schedule: Q04DX003 (ip), vehicle: saline
[12] = dose: 100.0 mg/kg/injection, schedule: Q01DX009 (ip), vehicle: saline with Tween-80
[13] = dose: 200.0 mg/kg/injection, schedule: Q01DX009 (ip), vehicle: saline with Tween-80
[14] = dose: 400.0 mg/kg/injection, schedule: Q01DX009 (ip), vehicle: saline with Tween-80
[15] = dose: 100.0 mg/kg/injection, schedule: Q01DX001 (ip), vehicle: saline
[16] = dose: 200.0 mg/kg/injection, schedule: Q01DX001 (ip), vehicle: saline
[17] = dose: 400.0 mg/kg/injection, schedule: Q01DX001 (ip), vehicle: saline

Measured: T/C

COc1ccc(/C=N/NC(=O)c2ccc(Cl)c(Cl)c2)cc1
inactive: [1] 91 % of control | [2] 100 % of control | [3] 90 % of control

CC1CCc2ccccc2N1CCN (stereo unspecified)
inactive: dose: 25.0 mg/kg/injection, schedule: Q01DX009 (ip), vehicle: saline 103 % of control | [4] 103 % of control | [5] 97 % of control

O=C1CSC(c2ccccc2)N1 (stereo unspecified)
inactive: dose: 44.0 mg/kg/injection, schedule: Q04DX003 (ip), vehicle: Klucel (hydroxypropylcellulose) (HPC) 94 % of control and 103 % of control | dose: 67.0 mg/kg/injection, schedule: Q04DX003 (ip), vehicle: Klucel (hydroxypropylcellulose) (HPC) 98 % of control and 100 % of control | [1] 98 % of control | [6] 98 % of control and 100 % of control | dose: 150.0 mg/kg/injection, schedule: Q04DX003 (ip), vehicle: Klucel (hydroxypropylcellulose) (HPC) 98 % of control and 109 % of control | [2] 98 % of control | [7] 100 % of control | [3] 95 % of control | [8] 105 % of control

Nc1ncnc2nc(SC3OC(CO)C(O)C3O)[nH]c12 (stereo unspecified)
inactive: dose: 150.0 mg/kg/injection, schedule: Q01DX001 (ip), vehicle: saline 100 % of control | dose: 300.0 mg/kg/injection, schedule: Q01DX001 (ip), vehicle: saline 100 % of control

CN(C)CCN(C)N=Nc1c(-c2cccs2)n[nH]c1C(F)(F)F
inactive: dose: 75.0 mg/kg/injection, schedule: Q01DX001 (ip), vehicle: other 94 % of control | dose: 150.0 mg/kg/injection, schedule: Q01DX001 (ip), vehicle: other 98 % of control | dose: 300.0 mg/kg/injection, schedule: Q01DX001 (ip), vehicle: other 93 % of control

CC(O)C[As](=O)(O)c1ccccc1 (stereo unspecified)
inactive: dose: 12.5 mg/kg/injection, schedule: Q04DX002 (ip), vehicle: saline 103 % of control | dose: 25.0 mg/kg/injection, schedule: Q04DX002 (ip), vehicle: saline 100 % of control

CC(C)N(C(=O)CSc1c(Cl)c(Cl)c(Cl)c(Cl)c1Cl)C(C)C
inactive: dose: 100.0 mg/kg/injection, schedule: Q04DX002 (ip), vehicle: other 107 % of control and 113 % of control | dose: 100.0 mg/kg/injection, schedule: Q04DX003 (ip), vehicle: other 89 % of control and 91 % of control | dose: 200.0 mg/kg/injection, schedule: Q04DX002 (ip), vehicle: other 95 % of control and 106 % of control | dose: 200.0 mg/kg/injection, schedule: Q04DX003 (ip), vehicle: other 96 % of control and 91 % of control | dose: 400.0 mg/kg/injection, schedule: Q04DX003 (ip), vehicle: other 94 % of control

CCCCCCCCC(=O)Nc1ccc(O)cc1
inactive: dose: 100.0 mg/kg/injection, schedule: Q01DX009 (ip), vehicle: gum acacia 97 % of control | dose: 100.0 mg/kg/injection, schedule: Q04DX003 (ip), vehicle: gum acacia 104 % of control | dose: 200.0 mg/kg/injection, schedule: Q01DX009 (ip), vehicle: gum acacia 105 % of control | dose: 200.0 mg/kg/injection, schedule: Q04DX003 (ip), vehicle: gum acacia 88 % of control | dose: 400.0 mg/kg/injection, schedule: Q01DX009 (ip), vehicle: gum acacia 112 % of control | dose: 400.0 mg/kg/injection, schedule: Q04DX003 (ip), vehicle: gum acacia 102 % of control

CC[N+](CC)(CC)CCOc1cccc(OCC[N+](CC)(CC)CC)c1OCC[N+](CC)(CC)CC
inactive: dose: 5.0 mg/kg/injection, schedule: Q01DX001 (ip), vehicle: saline 95 % of control | dose: 10.0 mg/kg/injection, schedule: Q01DX001 (ip), vehicle: saline 98 % of control

C/C(=C(/CCO)SCCC(=O)c1ccc(Cl)cc1)N(C=O)Cc1cnc(C)nc1N
inactive: [9] 97 % of control | [10] 93 % of control | [11] 97 % of control

O=C(O)CCc1ccncc1
inactive: dose: 100.0 mg/kg/injection, schedule: Q04DX002 (ip), vehicle: saline 100 % of control | dose: 200.0 mg/kg/injection, schedule: Q04DX002 (ip), vehicle: saline 122 % of control | dose: 400.0 mg/kg/injection, schedule: Q04DX002 (ip), vehicle: saline 103 % of control

CNC(=O)OCc1c(COC(=O)NC)c(-c2ccc(OC)cc2)n2c1CCC2
inactive: dose: 50.0 mg/kg/injection, schedule: Q01DX009 (ip), vehicle: Klucel (hydroxypropylcellulose) (HPC) 109 % of control | [1] 117 % of control | [2] 98 % of control

COC(=O)c1ccccc1C1(c2ccccc2C(=O)OC)OC(=O)c2ccccc21
inactive: [12] 97 % of control | dose: 100.0 mg/kg/injection, schedule: Q04DX003 (ip), vehicle: saline with Tween-80 98 % of control | [13] 101 % of control | dose: 200.0 mg/kg/injection, schedule: Q04DX003 (ip), vehicle: saline with Tween-80 93 % of control | [14] 97 % of control | dose: 400.0 mg/kg/injection, schedule: Q04DX003 (ip), vehicle: saline with Tween-80 96 % of control

CCCC(CCCC(=O)O)C(=O)c1ccccc1 (stereo unspecified)
inactive: [12] 101 % of control | [13] 104 % of control | [14] 100 % of control

ClC1(Cl)C2CCCOC21 (stereo unspecified)
inactive: [1] 97 % of control | [2] 100 % of control | [3] 98 % of control

CCOC(=O)c1[nH]cnc1/N=N/N(C1CCCCC1)C1CCCCC1
inactive: dose: 50.0 mg/kg/injection, schedule: Q01DX001 (ip), vehicle: other 94 % of control | dose: 100.0 mg/kg/injection, schedule: Q01DX001 (ip), vehicle: other 97 % of control | dose: 200.0 mg/kg/injection, schedule: Q01DX001 (ip), vehicle: other 102 % of control | dose: 400.0 mg/kg/injection, schedule: Q01DX001 (ip), vehicle: other 92 % of control

Cc1cc(/C=C2\C=Cc3ccccc32)ccc1N(C)C
inactive: [15] 94 % of control | [16] 93 % of control | [17] 98 % of control

O=NN(CCCl)C(=O)Nc1ccc(S(=O)(=O)F)cc1
inactive: dose: 500.0 mg/kg/injection, schedule: Q01DX001 (ip), vehicle: carboxymethylcellulose (CMC) 110 % of control

O=C(O)CCC1C2CC(C1C(=O)O)C1C3CCC(C3)C21 (stereo unspecified)
inactive: [6] 100 % of control | [7] 95 % of control | [8] 95 % of control

O=C(O)c1cc(Cl)c(Cl)cc1Cl
inactive: [4] 104 % of control | [15] 93 % of control | [5] 98 % of control | [9] 100 % of control | [16] 86 % of control | [10] 102 % of control | [17] 94 % of control

O=[N+]([O-])c1cc(Cl)c(Cl)cc1N1CCCC1
inactive: [6] 93 % of control | [7] 88 % of control | [8] 101 % of control

O=C(CSCCN1CCCCC1)N1c2ccccc2Sc2ccccc21
inactive: dose: 10.0 mg/kg/injection, schedule: Q01DX009 (ip), vehicle: saline 102 % of control | dose: 20.0 mg/kg/injection, schedule: Q01DX009 (ip), vehicle: saline 100 % of control | dose: 40.0 mg/kg/injection, schedule: Q01DX009 (ip), vehicle: saline 96 % of control

Cc1ccc(S(=O)(=O)OCC2C(c3ccccc3)CCC(c3ccccc3)C2COS(=O)(=O)c2ccc(C)cc2)cc1 (stereo unspecified)
inactive: [1] 90 % of control | [6] 103 % of control | [2] 94 % of control | [7] 105 % of control | [8] 100 % of control

OCCCCC(O)c1ccccc1 (stereo unspecified)
inactive: [5] 107 % of control | [9] 116 % of control | dose: 200.0 mg/kg/injection, schedule: Q01DX009 (ip), vehicle: saline 96 % of control | [10] 107 % of control | dose: 400.0 mg/kg/injection, schedule: Q01DX009 (ip), vehicle: saline 100 % of control | [11] 112 % of control
